Results on one molecule are retold here after ChEMBL document CHEMBL5150017, “Mechanism of Action and Structure-Activity Relationship of α-Conotoxin Mr1.1 at the Human α9α10 Nicotinic Acetylcholine Receptor” (J Med Chem, 2022).

This assay deals with Mus musculus. Nature of the assay: Analgesic activity in chronic constriction injury-induced mechanical pain mouse model assessed as increase in paw withdrawal latency at 60 mg/kg measured after 1 to 7 hrs. Type of assay: functional, organism-based. As to conditions: time 1-7 hrs.

Active and inactive are the calls of the source. The rule behind the calls is not given here.

As to `NCC1(CC(=O)O)CCCCC1`, the result was Active.
